Here are results for 22 compounds from ChEMBL document CHEMBL1138903, “Secondary amides of sulfonylated 3-amidinophenylalanine. New potent and selective inhibitors of matriptase” (J Med Chem, 2006).

The structures appear in SMILES notation.

Test [1] has as its target Urokinase-type plasminogen activator (Homo sapiens, UniProt P00749). Nature of the test: Inhibition of uPA.
The target of the next test is Plasminogen (Homo sapiens, UniProt P00747). Nature of the test: Inhibition of plasmin.
The target of test [2] is T1, Prothrombin (Homo sapiens, UniProt P00734). Nature of the test: Inhibition of thrombin.
For another test, the target named is Coagulation factor X (Homo sapiens, UniProt P00742). The test is described as follows: Inhibition of f10a.
Test [3] in a line: Anticoagulant activity in blood by aPTT assay. It counts as functional, Homo sapiens.
The target of test [4] is T2, Suppressor of tumorigenicity 14 protein (Homo sapiens, UniProt Q9Y5Y6).
T2 sequence (Q9Y5Y6 whole entry): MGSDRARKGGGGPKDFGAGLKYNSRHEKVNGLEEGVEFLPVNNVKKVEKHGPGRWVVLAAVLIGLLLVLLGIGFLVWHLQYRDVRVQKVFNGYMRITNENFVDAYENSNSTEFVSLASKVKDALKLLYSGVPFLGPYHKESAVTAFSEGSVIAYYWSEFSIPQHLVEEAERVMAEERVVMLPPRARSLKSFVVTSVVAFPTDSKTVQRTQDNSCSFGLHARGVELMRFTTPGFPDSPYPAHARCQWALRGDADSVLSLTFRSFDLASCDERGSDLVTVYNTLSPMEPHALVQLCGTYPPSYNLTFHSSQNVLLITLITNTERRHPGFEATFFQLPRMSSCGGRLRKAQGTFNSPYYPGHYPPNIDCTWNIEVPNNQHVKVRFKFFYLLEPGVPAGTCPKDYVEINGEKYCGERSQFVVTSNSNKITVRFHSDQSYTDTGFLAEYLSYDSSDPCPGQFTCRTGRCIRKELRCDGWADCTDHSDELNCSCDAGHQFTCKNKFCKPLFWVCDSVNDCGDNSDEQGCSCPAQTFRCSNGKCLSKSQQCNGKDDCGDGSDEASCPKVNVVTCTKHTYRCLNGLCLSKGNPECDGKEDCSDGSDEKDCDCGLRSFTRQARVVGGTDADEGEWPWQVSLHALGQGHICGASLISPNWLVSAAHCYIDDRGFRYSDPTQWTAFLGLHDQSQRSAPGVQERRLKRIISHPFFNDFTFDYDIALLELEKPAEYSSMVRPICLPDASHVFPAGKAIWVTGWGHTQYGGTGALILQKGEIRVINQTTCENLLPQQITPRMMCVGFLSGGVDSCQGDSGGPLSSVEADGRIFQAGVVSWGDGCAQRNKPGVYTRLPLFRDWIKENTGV

Test [5] addresses T1, Prothrombin. Conditions: Blood.
The target in test [6] is Coagulation factor VII/tissue factor (Homo sapiens) (UniProt P08709+P13726). Particulars: Blood.
Description: Anticoagulant activity in blood by PT assay
In test [7] the test system is PC-3. Nature of the test: Reduction of median primary tumor growth of PC3 cell line xenografted in nude mouse at 5 mg/kg, ip. More on the design: scale not given: the % may be the effect or the level left. Conditions: route intraperitoneal. It counts as functional, Homo sapiens.
The test system of test [8] is PC-3. The test is described as follows: Reduction of dissemination into thorax in nude mouse xenografted with PC3 cell line at 5 mg/kg, ip. Particulars: route intraperitoneal. More on the design: scale not given: the % may be the effect or the level left. It counts as functional.

Plasminogen, sequence (P00747 97-580 limits assumed): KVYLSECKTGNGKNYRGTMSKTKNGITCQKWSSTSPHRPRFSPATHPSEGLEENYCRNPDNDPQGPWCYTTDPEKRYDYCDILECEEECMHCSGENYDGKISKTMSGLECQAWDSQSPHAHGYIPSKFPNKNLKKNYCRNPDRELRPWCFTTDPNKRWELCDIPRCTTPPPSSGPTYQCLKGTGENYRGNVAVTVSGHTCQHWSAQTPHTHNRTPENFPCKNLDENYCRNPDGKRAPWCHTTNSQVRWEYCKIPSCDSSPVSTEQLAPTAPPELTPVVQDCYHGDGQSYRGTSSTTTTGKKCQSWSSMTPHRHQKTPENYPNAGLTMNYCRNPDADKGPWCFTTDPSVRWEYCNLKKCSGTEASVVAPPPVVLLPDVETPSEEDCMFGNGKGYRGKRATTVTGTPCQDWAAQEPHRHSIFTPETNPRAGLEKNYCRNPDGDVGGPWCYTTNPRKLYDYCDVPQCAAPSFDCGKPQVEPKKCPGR
Plasminogen, sequence (P00747 581-810 limits assumed): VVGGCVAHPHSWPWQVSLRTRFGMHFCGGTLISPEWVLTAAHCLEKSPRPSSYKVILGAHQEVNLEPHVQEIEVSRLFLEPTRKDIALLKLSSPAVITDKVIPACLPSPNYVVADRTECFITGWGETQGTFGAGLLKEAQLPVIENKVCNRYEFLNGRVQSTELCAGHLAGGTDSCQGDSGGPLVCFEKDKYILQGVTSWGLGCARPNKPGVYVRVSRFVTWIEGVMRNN
Coagulation factor X, sequence (P00742 41-179 limits assumed): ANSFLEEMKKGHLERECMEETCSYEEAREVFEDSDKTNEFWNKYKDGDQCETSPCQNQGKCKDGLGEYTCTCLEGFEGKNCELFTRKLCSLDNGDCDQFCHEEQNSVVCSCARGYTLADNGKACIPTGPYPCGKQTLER
Coagulation factor X, sequence (P00742 235-488 limits assumed): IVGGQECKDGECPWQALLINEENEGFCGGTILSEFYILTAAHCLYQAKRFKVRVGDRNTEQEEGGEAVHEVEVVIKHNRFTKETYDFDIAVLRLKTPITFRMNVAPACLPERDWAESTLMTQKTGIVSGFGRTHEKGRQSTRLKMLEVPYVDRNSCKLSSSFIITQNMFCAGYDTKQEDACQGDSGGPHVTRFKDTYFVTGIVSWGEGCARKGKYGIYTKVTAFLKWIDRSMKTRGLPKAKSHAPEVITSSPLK

One may read the Ki as a dissociation constant, usually derived from enzyme kinetics or from competition with a known ligand. As to `N=C(N)c1cccc(C[C@H](NS(=O)(=O)c2cccc(NC(=O)CCN)c2)C(=O)N2CCC(CCCN=C(N)N)CC2)c1`, the Ki in test [1] was determined as 1800 nM; on Plasminogen, 2800 nM; on Prothrombin [2] it was 4000 nM; on Coagulation factor X, 13000 nM; in [4], 1.5 nM. Besides, the IC200 (in [3]; at Prothrombin [5]; in test [6]) was greater than 10 µM in each case.

Turning to `N=C(N)NCCC1CCN(C(=O)[C@H](Cc2cccc(C(=N)N)c2)NS(=O)(=O)c2ccc3ccccc3c2)CC1`, the Ki in [1] worked out at 1300 nM; at Plasminogen, 20000 nM; at Prothrombin [2] it was 110 nM; at Coagulation factor X it was 27000 nM. Further, the Activity is 17% in the test on PC-3 [7] and 53% in the test on PC-3 [8]. Moreover, the IC200 in [3] was determined as 2.7 µM; against Prothrombin [5] it was 0.32 µM; in [6] it was 3.8 µM.

Turning to `N=C(N)NCCC1CCN(C(=O)[C@H](Cc2cccc(C(=N)N)c2)NS(=O)(=O)c2ccc(Oc3ccccc3)nc2)CC1`, the Ki in test [1] turned out to be 3400 nM; on Plasminogen, 1400 nM; on Prothrombin [2] it was 99 nM; at Coagulation factor X it was 2200 nM; in [4] it was 13 nM. The IC200 in test [3] was 1.5 µM; against Prothrombin [5], 0.27 µM; in [6] it was 1.6 µM.

Turning to `N=C(N)c1cccc(C[C@H](NS(=O)(=O)c2ccc3c(c2)C(=O)c2ccccc2C3=O)C(=O)N2CCC(C(=O)NCCN)CC2)c1`, the Ki was 7700 nM in test [1]; 3100 nM on Plasminogen; 420 nM on Prothrombin [2]; 4000 nM on Coagulation factor X; 21 nM in [4].

For the compound `N=C(N)NCCC(=O)N1CCN(C(=O)[C@H](Cc2cccc(C(=N)N)c2)NS(=O)(=O)c2cccc3ccccc23)CC1`, the Ki worked out at 19000 nM in test [1]; 3700 nM at Plasminogen; 2500 nM on Prothrombin [2]; 5100 nM at Coagulation factor X; 340 nM in [4].

For the compound `N=C(N)NCCC(=O)N1CCN(C(=O)[C@H](Cc2cccc(C(=N)N)c2)NS(=O)(=O)c2ccc3ccccc3c2)CC1`, the Ki in test [1] was 6900 nM; at Plasminogen, 2800 nM; at Prothrombin [2], 1400 nM; at Coagulation factor X, 56000 nM; in test [4] it was 210 nM.

With `CC(C)c1cc(C(C)C)c(S(=O)(=O)N[C@@H](Cc2cccc(C(=N)N)c2)C(=O)N2CCC(CCN=C(N)N)CC2)c(C(C)C)c1`, the Ki in [1] was determined as 320 nM; on Plasminogen, 1000 nM; on Prothrombin [2] it was 300 nM; on Coagulation factor X, 3200 nM; in test [4] it was 89 nM.

For the compound `CC(C)c1cc(C(C)C)c(S(=O)(=O)N[C@@H](Cc2cccc(C(=N)N)c2)C(=O)N2CCC(C(=O)NCCN=C(N)N)CC2)c(C(C)C)c1`, the Ki in test [1] amounted to 620 nM; on Plasminogen it was 1800 nM; on Prothrombin [2] it was 20000 nM; on Coagulation factor X it was 5000 nM; in test [4], 140 nM.

As for `N=C(N)NCCC(=O)N1CCN(C(=O)[C@H](Cc2cccc(C(=N)N)c2)NS(=O)(=O)Cc2ccc3ccccc3c2)CC1`, the Ki in test [1] was determined as 43000 nM; on Plasminogen, 12000 nM; at Prothrombin [2] it was 2600 nM; on Coagulation factor X it was 130000 nM; in [4], 400 nM.

`N=C(N)NCCNC(=O)C1CCN(C(=O)[C@H](Cc2cccc(C(=N)N)c2)NS(=O)(=O)c2ccc3c(c2)C(=O)c2ccccc2C3=O)CC1`: the Ki stood at 3600 nM in [1]; 4100 nM on Plasminogen; 420 nM on Prothrombin [2]; 4900 nM at Coagulation factor X; 13 nM in test [4].

For `N=C(N)c1cccc(C[C@H](NS(=O)(=O)c2ccc(NC(=O)CCN)cc2)C(=O)N2CCC(CCN)CC2)c1`, the Ki in test [1] was 820 nM; at Plasminogen it was 1200 nM; at Prothrombin [2], 8800 nM; at Coagulation factor X it was 15000 nM; in test [4], 28 nM.

Consider `CC(C)c1cc(C(C)C)c(S(=O)(=O)N[C@@H](Cc2cccc(C(=N)N)c2)C(=O)N2CCN(C(=O)CCN=C(N)N)CC2)c(C(C)C)c1`, for which the Ki in test [1] turned out to be 820 nM; at Plasminogen, 1400 nM; on Prothrombin [2], 1600 nM; at Coagulation factor X it was 2900 nM; in [4], 57 nM.

As to `N=C(N)NCCC(=O)Nc1ccc(S(=O)(=O)N[C@@H](Cc2cccc(C(=N)N)c2)C(=O)N2CCC(CCNC(=N)N)CC2)cc1`, the Ki in [1] was found to be 600 nM; on Plasminogen it was 1200 nM; on Prothrombin [2] it was 1800 nM; on Coagulation factor X it was 10000 nM; in [4], 8.7 nM.

Consider `N=C(N)NCCC(=O)Nc1cccc(S(=O)(=O)N[C@@H](Cc2cccc(C(=N)N)c2)C(=O)N2CCC(CCNC(=N)N)CC2)c1`, for which the Ki in test [1] was 1200 nM; on Plasminogen, 1800 nM; on Prothrombin [2] it was 4000 nM; on Coagulation factor X, 2000 nM; in test [4], 4.2 nM.

For the compound `N=C(N)NCCCC1CCN(C(=O)[C@H](Cc2cccc(C(=N)N)c2)NS(=O)(=O)c2ccc3ccccc3c2)CC1`, the Ki in test [1] is 2100 nM; at Plasminogen, 1200 nM; on Prothrombin [2], 170 nM; on Coagulation factor X, 34000 nM; in test [4], 42 nM.

With `CC(C)c1cc(C(C)C)c(S(=O)(=O)N[C@@H](Cc2cccc(C(=N)N)c2)C(=O)N2CCCN(C(=O)C3CCN(C(=N)N)CC3)CC2)c(C(C)C)c1`, the Ki in test [1] was 4600 nM; on Plasminogen, 330 nM; at Prothrombin [2] it was 2500 nM; on Coagulation factor X, 4100 nM; in test [4], 50 nM.

With `CC(C)c1cc(C(C)C)c(S(=O)(=O)N[C@@H](Cc2cccc(C(=N)N)c2)C(=O)N2CCN(C(=O)CCCN)CC2)c(C(C)C)c1`, the Ki in [1] was found to be 1100 nM; on Plasminogen, 640 nM; on Prothrombin [2], 9400 nM; on Coagulation factor X, 13000 nM; in [4] it was 140 nM.

On to `CC(C)c1cc(C(C)C)c(S(=O)(=O)NC(Cc2cccc(C(=N)N)c2)C(=O)N2CCN(C(=O)CN)CC2)c(C(C)C)c1` (racemic), for which the Ki in test [1] stood at 8900 nM; at Plasminogen, 3400 nM; at Prothrombin [2] it was 200 nM; at Coagulation factor X, 10500 nM; in [4] it was 690 nM.

For `N=C(N)c1cccc(C[C@H](NS(=O)(=O)c2ccc(Cc3ccncc3)cc2)C(=O)N2CCC(CCN=C(N)N)CC2)c1`, the Ki in [1] came to 3600 nM; on Plasminogen it was 840 nM; at Prothrombin [2], 270 nM; on Coagulation factor X, 2300 nM; in test [4], 53 nM.

`N=C(N)NCCC1CCN(C(=O)[C@H](Cc2cccc(C(=N)N)c2)NS(=O)(=O)c2ccc(Oc3ccccc3)cc2)CC1`: the Ki in test [1] stood at 2300 nM; on Plasminogen, 760 nM; at Prothrombin [2] it was 210 nM; at Coagulation factor X, 1000 nM; in test [4], 38 nM.

`N=C(N)c1cccc(C[C@H](NS(=O)(=O)CCc2cccc3ccccc23)C(=O)N2CCN(C(=O)CCN=C(N)N)CC2)c1`: the Ki in test [1] was 56000 nM; at Plasminogen, 4200 nM; on Prothrombin [2], 1500 nM; at Coagulation factor X it was 80000 nM; in test [4], 690 nM.

For `CC(C)c1cc(C(C)C)c(S(=O)(=O)NC(Cc2cccc(C(=N)N)c2)C(=O)N2CCN(C(=O)CN=C(N)N)CC2)c(C(C)C)c1` (racemic), the Ki in test [1] turned out to be 1500 nM; at Plasminogen, 820 nM; at Prothrombin [2], 1200 nM; at Coagulation factor X, 9000 nM; in [4] it was 330 nM.
